Earlier results in EP0268925B1, “Safened pesticidal resin compositions for controlling soil borne pests and process for the preparation thereof” (priority 1986, dated 1988).

Experiments:
[1] = inhalation hazard
rats = details: technical material

Structure (SMILES)	inhalation LD50 [1]	acute oral LD50 value in rats (rats)
CCOP(=S)(OCC)SCSCC [phorate, O,O-diethyl-S-(ethylthiomethyl)phosphorodithioate]	35 mg/kg body weight	1.6-3.7 mg technical/kg
CCOP(=S)(OCC)SCSC(C)(C)C [terbufos, O,O-diethyl S-[[(1,1-dimethylethyl)thio]methyl]phosphorodithioate]	35 mg/kg body weight	1.6 mg technical/kg
